One molecule from patent EP4660196A1, “CRYSTAL FORM OF COMPOUND, PREPARATION METHOD THEREFOR AND USE THEREOF” (Felicamed Biotechnology Co., Ltd., priority 2023, dated 2024) can be followed below.

Several values for one entry are separate records, joined by “and”; a condition that tells them apart may be missing. Equal values may be shown once.

Data set [1] is described as follows: Pharmacokinetics of free crystal form A in Beagle dogs (i.v. and intragastric). The data set is classed as in vivo. The conditions noted are these: dog. How it is done: Preparations were administered to the group C on the second day to the seventh day were prepared in the same way as that on the first day.
All the animals in this experiment were randomly divided into 4 groups (3 dogs/sex/group). The animals in the group A, the group B, and the group D were fasted before administration, and the animals in the group C were fasted before the first administration and the last administration. All the animals were fasted for at least 12 h before administration, and food was resumed 4 h after administration. All the animals had free access to water and food during the experiment. Table 25 Animal groups and administration methods
The animals in the group A were intravenously injected with the drug at 2 mg/kg, and blood samples were collected from the jugular vein before and 0.033 h, 0.083 h, 0.25 h, 0.5 h, 1 h, 2 h, 4 h, 8 h, 12 h, and 24 h after administration. The animals in the group B and the group D received single intragastric administration of the drugs at 2 mg/kg and 20 mg/kg, respectively, and blood samples were collected from the jugular vein before and 0.083 h, 0.25 h, 0.5 h, 1 h, 2 h, 4 h, 8 h, 12 h, and 24 h after administration. […] Blood samples were collected from the jugular vein before the first administration and the seventh administration and 0.083 h, 0.25 h, 0.5 h, 1 h, 2 h, 4 h, 8 h, 12 h, and 24 h after administration. Blood samples were collected from the jugular vein before administration and 0.5 h after administration from the second administration to the sixth administration. The sample collected before the second administration was the sample collected 24 h after the first administration.
The blood samples from the animals were collected through the jugular vein, with a blood sample volume of 0.5 mL/time. All collected whole blood samples were placed in centrifuge tubes containing ethylene diamine tetraacetic acid potassium salt (EDTA-K2), and the centrifuge tubes were turned upside down to allow the anticoagulant and blood to be fully mixed. All the samples were placed on wet ice before centrifugation and centrifuged at 1524 g for 10 min to separate plasma. The plasma samples were transferred to new centrifuge tubes and stored at -90°C to […] until analysis.
The drug concentration in the plasma of each Beagle dog was determined by liquid chromatography with tandem mass spectrometry (LC-MS/MS). The obtained plasma concentration data was analyzed by using the pharmacokinetic processing software WinNonlin 8.0 with a non-compartmental model to calculate relevant pharmacokinetic parameters.

Data set [2] is described as follows: Urine and fecal excretion after single intragastric administration. To be noted: dog, po, 6 mg/kg.
Experimental: The preparations were freshly prepared on the day of administration, and sampled for determination of preparation concentration.
Six Beagle dogs (half male and half female) were fasted overnight in metabolic cages the day before the experiment. Before administration, urine and feces of each animal were collected as baseline (0 h) samples. On the day of administration, Beagle dogs received single intragastric administration of the drug at 6 mg/kg. Four hours after administration, the animals resumed feeding and had free access to water during the experiment.
After urine collection is completed, the volume was measured and recorded. Part of the collected urine was taken, methanol was added to dilute the urine in a urine-to-methanol volume ratio of 4: 1 (v/v). After vortex mixing, the mixture was divided into 2 portions. After fecal samples at different time periods were collected, the food residues on the surface were removed and the feces were weighed. […] After the last sampling of the urine and feces excretion experimental group was completed, the metabolic cages were rinsed with 2000 mL of water: ethanol (1: 1, v: v) and the rinse solution of each cage was collected. After the rinse solution was thoroughly shaken, 1 mL was immediately taken, placed into a 1.5 mL EP tube, and stored in a -90°C to 60°C refrigerator together with the urine and feces homogenate until sample analysis.
The drug concentration in the excretion samples of the animal in each group at different time periods was detected by LC-MS/MS, and an excretion rate and a cumulative excretion rate in each time period were calculated.

As for `CC[S@@](=N)(=O)C[C@H]1CC[C@H](N(C)c2ncnc3[nH]ccc23)CC1` [Free crystal form A], in data set [1] (in vivo), the “AUC0-t of the unit dose” value was 4380 ng·kg·h/mL/mg and 4990 ng·kg·h/mL/mg and 5030 ng·kg·h/mL/mg; the clinical observation result is given as “no obvious abnormalities were found”; the “male-to-female ratio of AUC0-t” value was 1.10 and 0.716 and 0.877; the “male-to-female ratio of Cmax” value was 1.36 and 0.810 and 0.894. In data set [1] (in vivo), the “ratio of AUC0-t of the seventh administration and the first administration” value amounted to 0.887; the “ratio of Cmax of the seventh administration and the first administration” value worked out at 0.964; the “unit dose AUC0-t ratio of 20 mg/kg and 2 mg/kg” value is 1.15; the “unit dose Cmax” value is 675 kg·ng/mL/mg and 785 kg·ng/mL/mg and 665 kg·ng/mL/mg. The “unit dose Cmax ratio of 20 mg/kg and 2 mg/kg” value in data set [1] (in vivo) came to 0.985. For the same molecule, in data set [1] (in vivo, iv, 2 mg/kg), the “steady-state volume of distribution (Vdss) relative to total body fluid volume” value is given as 1.57 times and the “total clearance (CL) relative to liver blood flow” value worked out at 0.110 times. In addition, the Tmax in data set [1] (plasma, po, read-out: average time to peak drug concentration) was 0.792 to 1.33 h. In addition, the dose excreted at 120 h in data set [2] (cage rinse solution) worked out at 4.87 ± 3.09%. The molecule also returned a dose excreted at 120 h in data set [2] (feces) of 3.48 ± 0.663%. In addition, the dose excreted at 120 h in data set [2] (urine and feces) turned out to be 47.3 ± 9.62%. For the same molecule, the dose excreted at 120 h in data set [2] (urine, feces, cage rinse) is 52.2%. This molecule displayed a dose excreted at 120 h in data set [2] (urine) of 43.8 ± 9.97%.
